Test results published in patent publication US8530489B2 (Vertex Pharmaceuticals Incorporated, priority 2006, dated 2013).

Target: PLK1 (Homo sapiens, UniProt P53350)
Assay: PLK1 Inhibition Assay I (radioactive-phosphate incorporation)
Type: biochemical
Conditions: Ki(app); PLK1 Inhibition Assay I or II (table does not say which)
How it was run: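 Ki(app) values came from non-linear regression of initial rates after background subtraction, with phosphopeptide measured by phosphocellulose filter binding and scintillation counting. PLK1 at 2 nM was preincubated with compound (typically from 10 μM, 2-fold dilutions) for 10 min, then run 240 min at 25° C with 350 μM [γ-33P]ATP and 450 μM peptide substrate in HEPES pH 7.5 buffer.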

Sequence of PLK1 (P53350 whole entry): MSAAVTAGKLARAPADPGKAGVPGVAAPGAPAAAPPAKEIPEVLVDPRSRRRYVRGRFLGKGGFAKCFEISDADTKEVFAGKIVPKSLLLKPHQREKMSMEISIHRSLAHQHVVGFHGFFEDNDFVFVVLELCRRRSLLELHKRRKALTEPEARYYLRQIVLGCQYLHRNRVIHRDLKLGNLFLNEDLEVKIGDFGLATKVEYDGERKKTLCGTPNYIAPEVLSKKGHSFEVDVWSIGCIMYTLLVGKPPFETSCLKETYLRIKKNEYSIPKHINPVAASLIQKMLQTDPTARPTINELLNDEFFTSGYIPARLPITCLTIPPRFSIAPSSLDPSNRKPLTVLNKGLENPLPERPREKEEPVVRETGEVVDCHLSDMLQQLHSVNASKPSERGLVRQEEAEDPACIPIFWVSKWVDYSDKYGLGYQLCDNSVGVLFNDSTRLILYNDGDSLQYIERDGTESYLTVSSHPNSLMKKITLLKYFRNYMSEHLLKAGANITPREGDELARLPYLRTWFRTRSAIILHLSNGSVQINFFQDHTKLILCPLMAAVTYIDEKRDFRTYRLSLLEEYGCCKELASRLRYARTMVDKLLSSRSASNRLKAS

| SMILES | Ki [nM] |
| --- | --- |
| N#Cc1cnc(NC(CO)C2CCOCC2)nc1-c1c[nH]c2ncc(C(F)(F)F)cc12 (stereo not shown) [Compound I-105, 2-(2-hydroxy-1-(tetrahydro-2H-pyran-4-yl)ethylamino)-4-(5-(trifluoromethyl)-1H-pyrrolo[2,3-b]pyridin-3-yl)pyrimidine-5-carbonitrile] | 3 to 40 |
| CC(Nc1ncc(C#N)c(-c2c[nH]c3ncc(C(F)(F)F)cc23)n1)c1ccc(N2CCOCC2)cc1 (stereo not shown) [Compound I-125, 2-(1-(4-morpholinophenyl)ethylamino)-4-(5-(trifluoromethyl)-1H-pyrrolo[2,3-b]pyridin-3-yl)pyrimidine-5-carbonitrile] | < 3 |
| CC(C)[C@@H](CO)Nc1ncc(C#N)c(-c2c[nH]c3ncc(C(F)(F)F)cc23)n1 [Compound I-58, 2-((S)-1-hydroxy-3-methylbutan-2-ylamino)-4-(5-(trifluoromethyl)-1H-pyrrolo[2,3-b]pyridin-3-yl)pyrimidine-5-carbonitrile] | 3 to 40 |
| CC(Nc1ncc(C#N)c(-c2c[nH]c3ncc(C(F)(F)F)cc23)n1)c1ccc(N2CC(O)(C3CC3)C2)nc1 (stereo not shown) [Compound I-194, 2-(1-(6-(3-cyclopropyl-3-hydroxyazetidin-1-yl)pyridin-3-yl)ethylamino)-4-(5-(trifluoromethyl)-1H-pyrrolo[2,3-b]pyridin-3-yl)pyrimidine-5-carbonitrile] | 3 to 40 |
| C[C@@H](Nc1ncc(C#N)c(-c2c[nH]c3ncc(C(F)(F)F)cc23)n1)c1ccc(N2CCCC2=O)cc1 [Compound I-145, 2-((R)-1-(4-(2-oxopyrrolidin-1-yl)phenyl)ethylamino)-4-(5-(trifluoromethyl)-1H-pyrrolo[2,3-b]pyridin-3-yl)pyrimidine-5-carbonitrile] | < 3 |
| N#Cc1cnc(NCCCN2CCOCC2)nc1-c1c[nH]c2ncc(C(F)(F)F)cc12 [Compound I-70, 2-(3-morpholinopropylamino)-4-(5-(trifluoromethyl)-1H-pyrrolo[2,3-b]pyridin-3-yl)pyrimidine-5-carbonitrile] | > 40 |
| COc1cc(CNc2ncc(C#N)c(-c3c[nH]c4ncc(C(F)(F)F)cc34)n2)ccc1O [Compound I-42, 2-(4-hydroxy-3-methoxybenzylamino)-4-(5-(trifluoromethyl)-1H-pyrrolo[2,3-b]pyridin-3-yl)pyrimidine-5-carbonitrile] | > 40 |
| COc1ccc(CNc2ncc(C#N)c(-c3c[nH]c4ncc(C(F)(F)F)cc34)n2)cc1 [Compound I-12, 2-(4-methoxybenzylamino)-4-(5-(trifluoromethyl)-1H-pyrrolo[2,3-b]pyridin-3-yl)pyrimidine-5-carbonitrile] | > 40 |
| COC(=O)Nc1ccc([C@@H](C)Nc2ncc(C#N)c(-c3c[nH]c4ncc(C(F)(F)F)cc34)n2)cc1 [Compound I-141, methyl 4-((1R)-1-(5-cyano-4-(5-(trifluoromethyl)-1H-pyrrolo[2,3-b]pyridin-3-yl)pyrimidin-2-ylamino)ethyl)phenylcarbamate] | < 3 |
| CNC(=O)c1ccc([C@H](C)Nc2ncc(C#N)c(-c3c[nH]c4ncc(C(F)(F)F)cc34)n2)cc1 [Compound I-164, 4-((1S)-1-(5-cyano-4-(5-(trifluoromethyl)-1H-pyrrolo[2,3-b]pyridin-3-yl)pyrimidin-2-ylamino)ethyl)-N-methylbenzamide] | 3 to 40 |
| CNC(=O)N1CCC(C(C)Nc2ncc(C#N)c(-c3c[nH]c4ncc(C(F)(F)F)cc34)n2)CC1 (stereo not shown) [Compound I-160, 4-(1-(5-cyano-4-(5-(trifluoromethyl)-1H-pyrrolo[2,3-b]pyridin-3-yl)pyrimidin-2-ylamino)ethyl)-N-methylpiperidine-1-carboxamide] | < 3 |
| C[C@@H](Nc1ncc(C#N)c(-c2c[nH]c3ncc(C(F)(F)F)cc23)n1)c1ccc(S(=O)(=O)N(C)C)cc1 [Compound I-190, 4-((1R)-1-(5-cyano-4-(5-(trifluoromethyl)-1H-pyrrolo[2,3-b]pyridin-3-yl)pyrimidin-2-ylamino)ethyl)-N,N-dimethylbenzenesulfonamide] | < 3 |
| N#Cc1cnc(NCc2ccc3c(c2)OCO3)nc1-c1c[nH]c2ncc(C(F)(F)F)cc12 [Compound I-56] | 3 to 40 |
| N#Cc1cnc(N[C@@H]2CC3CC[C@@H]2C3)nc1-c1c[nH]c2ncc(C(F)(F)F)cc12 [Compound I-65, 2-((1R,2R)-bicyclo[2.2.1]heptan-2-ylamino)-4-(5-(trifluoromethyl)-1H-pyrrolo[2,3-b]pyridin-3-yl)pyrimidine-5-carbonitrile] | 3 to 40 |
| CC(Nc1ncc(C#N)c(-c2c[nH]c3ncc(C(F)(F)F)cc23)n1)c1ccc(N2CC(O)C2)nc1 (stereo not shown) [Compound I-201, 2-(1-(6-(3-hydroxyazetidin-1-yl)pyridin-3-yl)ethylamino)-4-(5-(trifluoromethyl)-1H-pyrrolo[2,3-b]pyridin-3-yl)pyrimidine-5-carbonitrile] | < 3 |

The remaining lines, values ahead:

| Ki [nM] | SMILES |
| --- | --- |
| < 3 | CC(Nc1ncc(C#N)c(-c2c[nH]c3ncc(C(F)(F)F)cc23)n1)c1ccc(C2(O)CCN(C)CC2)nc1 (stereo not shown) [Compound I-266, 2-(1-(6-(4-hydroxy-1-methylpiperidin-4-yl)pyridin-3-yl)ethylamino)-4-(5-(trifluoromethyl)-1H-pyrrolo[2,3-b]pyridin-3-yl)pyrimidine-5-carbonitrile] |
| 3 to 40 | C[C@@H](Nc1ncc(C#N)c(-c2c[nH]c3ncc(C(F)(F)F)cc23)n1)C1CCN(C(=O)[C@H](N)c2ccccc2)CC1 [Compound I-248, 2-((R)-1-(1-((R)-2-amino-2-phenylacetyl)piperidin-4-yl)ethylamino)-4-(5-(trifluoromethyl)-1H-pyrrolo[2,3-b]pyridin-3-yl)pyrimidine-5-carbonitrile] |
| < 3 | C[C@@H](Nc1ncc(C#N)c(-c2c[nH]c3ncc(C(F)(F)F)cc23)n1)C1CCN(C(=O)CCO)CC1 [Compound I-216, 2-((R)-1-(1-(3-hydroxypropanoyl)piperidin-4-yl)ethylamino)-4-(5-(trifluoromethyl)-1H-pyrrolo[2,3-b]pyridin-3-yl)pyrimidine-5-carbonitrile] |
| < 3 | CC(Nc1ncc(C#N)c(-c2c[nH]c3ncc(C(F)(F)F)cc23)n1)C1CN(C(=O)[C@@H](C)O)C1 (stereo partly drawn) [Compound I-222, 2-(1-(1-((R)-2-hydroxypropanoyl)azetidin-3-yl)ethylamino)-4-(5-(trifluoromethyl)-1H-pyrrolo[2,3-b]pyridin-3-yl)pyrimidine-5-carbonitrile] |
| < 3 | C[C@@H](Nc1ncc(C#N)c(-c2c[nH]c3ncc(C(F)(F)F)cc23)n1)c1ccc(N2CCCN(C)CC2)nc1 [Compound I-292, 2-((R)-1-(6-(4-methyl-1,4-diazepan-1-yl)pyridin-3-yl)ethylamino)-4-(5-(trifluoromethyl)-1H-pyrrolo[2,3-b]pyridin-3-yl)pyrimidine-5-carbonitrile] |
| < 3 | CC(C)S(=O)(=O)N1CCC([C@@H](C)Nc2ncc(C#N)c(-c3c[nH]c4ncc(C(F)(F)F)cc34)n2)CC1 [Compound I-213, 2-((R)-1-(1-(isopropylsulfonyl)piperidin-4-yl)ethylamino)-4-(5-(trifluoromethyl)-1H-pyrrolo[2,3-b]pyridin-3-yl)pyrimidine-5-carbonitrile] |
| < 3 | COc1ncc([C@@H](C)Nc2ncc(C#N)c(-c3c[nH]c4ncc(C(F)(F)F)cc34)n2)cn1 [Compound I-303, 2-(I-1-(2-methoxypyrimidin-5-yl)ethylamino)-4-(5-(trifluoromethyl)-1H-pyrrolo[2,3-b]pyridin-3-yl)pyrimidine-5-carbonitrile] |
